Reference: patent US10759783B2, “Biaryl inhibitors of Bruton'S tyrosine kinase” (BIOGEN MA INC., priority 2013, dated 2020)

What follows are molecules tested against BTK (phospho-BTK) in human whole blood (Homo sapiens, UniProt Q06187) (assay: In vitro PD assay in human whole blood (pBTK assay)). Details: not given.
Sequence of BTK (phospho-BTK) in human whole blood (Q06187 whole entry): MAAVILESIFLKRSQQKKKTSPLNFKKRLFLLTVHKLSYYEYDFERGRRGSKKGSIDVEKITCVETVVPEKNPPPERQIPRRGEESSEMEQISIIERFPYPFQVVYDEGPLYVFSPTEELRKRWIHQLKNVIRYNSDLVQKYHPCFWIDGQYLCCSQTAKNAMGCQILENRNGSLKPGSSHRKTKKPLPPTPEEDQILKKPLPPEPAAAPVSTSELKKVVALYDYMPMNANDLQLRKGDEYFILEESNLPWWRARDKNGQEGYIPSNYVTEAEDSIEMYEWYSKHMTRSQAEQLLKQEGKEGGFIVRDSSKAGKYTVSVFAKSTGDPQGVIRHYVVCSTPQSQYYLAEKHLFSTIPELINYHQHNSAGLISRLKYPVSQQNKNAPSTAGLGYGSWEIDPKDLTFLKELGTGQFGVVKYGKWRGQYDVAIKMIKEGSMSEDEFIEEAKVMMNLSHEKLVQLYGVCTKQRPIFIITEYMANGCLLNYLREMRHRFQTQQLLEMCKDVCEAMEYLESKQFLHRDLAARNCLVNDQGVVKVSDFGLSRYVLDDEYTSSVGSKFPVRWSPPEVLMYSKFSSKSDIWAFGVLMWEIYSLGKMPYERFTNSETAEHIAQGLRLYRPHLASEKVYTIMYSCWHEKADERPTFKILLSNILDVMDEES

| SMILES | IC50 |
| --- | --- |
| Cc1cc(-c2ccnc(Nc3cnn(C4CCC(C(=O)O)CC4)c3)n2)ccc1CNC(=O)c1cnn(C(C)(C)C)c1 (stereo in doubt) [Example I-195, cis-4-(4-((4-(4-((1-(tert-butyl)-1H-pyrazole-4-carboxamido)methyl)-3-methylphenyl)pyrimidin-2-yl)amino)-1H-pyrazol-1-yl)cyclohexanecarboxylic acid] | < 500 nM |
| Cc1cc(-c2ccnc(Nc3cnn(C)c3)n2)ccc1CNC(=O)c1cnc(C(C)(C)C)s1 [Example I-1, 2-(tert-butyl)-N-(2-methyl-4-(2-((1-methyl-1H-pyrazol-4-yl)amino)pyrimidin-4-yl)benzyl)thiazole-5-carboxamide] | < 500 nM |
| Cn1cc(Nc2nccc(-c3ccc4c(c3)CCCCC4NC(=O)c3cnn(C(C)(C)C)c3)n2)cn1 (stereo not drawn) [Example I-257, 1-tert-butyl-N-[2-[2-[(1-methylpyrazol-4-yl)amino]pyrimidin-4-yl]-6,7,8,9-tetrahydro-5H-benzo[7]annulen-5-yl]pyrazole-4-carboxamide] | < 500 nM |
| [2H]C([2H])([2H])C(OC1CN(C(=O)NCc2ccc(-c3ccnc(Nc4cnn(CC)c4)n3)cc2C)C1)C([2H])([2H])[2H] [Example I-262, N-[[4-[2-[(1-ethylpyrazol-4-yl)amino]pyrimidin-4-yl]-2-methyl-phenyl]methyl]-3-(1,1,1,3,3,3-d6)isopropoxy-azetidine-1-carboxamide] | < 500 nM |

Same assay, conditions: read-out: pBTK IC50; human whole blood, 37° C. for 30 min

| SMILES | IC50 |
| --- | --- |
| Cc1cc(-c2ccnc(Nc3cnn([C@@H]4CCNC[C@H]4F)c3)n2)ccc1CNC(=O)N1CC(OC(C)C)C1 (relative stereo) [Example I-220] | < 500 nM |

What follows are molecules tested against T1, BTK enzyme (Homo sapiens, UniProt Q06187) (assay: In vitro BTK kinase assay: BTK-POLYGAT-LS assay). Details: ATP 10 μM, read-out: IC50 (10uMATP).
T1 construct: purchased Upstate 14-552
T1 sequence (Q06187 whole entry): as above
Type: biochemical
Description: The purpose of the BTK in vitro assay is to determine compound potency against BTK through the measurement of IC50. […] For a typical assay, a 24 μL aliquot of a ATP/peptide master mix (final concentration; ATP 10 μM, polyGAT 100 nM) in kinase buffer (10 mM Tris-HCl pH 7.5, 10 mM MgCl2, 200 μM Na3PO4, 5 mM DTT, 0.01% Triton X-100, and 0.2 mg/ml casein) is added to each well. […] The assay is incubated for 30 minutes before being stopped with 28 μL of a 50 mM EDTA solution. […] The plate is covered and incubated for 45 minutes at room temperature.

| SMILES | IC50 |
| --- | --- |
| Cc1cc(-c2ccnc(Nc3cnn([C@@H]4CCNC[C@H]4F)c3)n2)ccc1CNC(=O)N1CC(OC(C)C)C1 (relative stereo) [Example I-220] | < 10 nM |
| Cc1cc(-c2ccnc(Nc3cnn(C4CCC(C(=O)O)CC4)c3)n2)ccc1CNC(=O)c1cnn(C(C)(C)C)c1 (stereo in doubt) [Example I-195, cis-4-(4-((4-(4-((1-(tert-butyl)-1H-pyrazole-4-carboxamido)methyl)-3-methylphenyl)pyrimidin-2-yl)amino)-1H-pyrazol-1-yl)cyclohexanecarboxylic acid] | < 10 nM |
| Cc1cc(-c2ccnc(Nc3cnn(C)c3)n2)ccc1CNC(=O)c1cnc(C(C)(C)C)s1 [Example I-1, 2-(tert-butyl)-N-(2-methyl-4-(2-((1-methyl-1H-pyrazol-4-yl)amino)pyrimidin-4-yl)benzyl)thiazole-5-carboxamide] | < 10 nM |
| Cc1cc(-c2ccnc(Nc3cnn(C[C@@H](N)CO)c3)n2)ccc1CNC(=O)c1cnc(C(C)(C)C)s1 [Example I-133, (R)—N-(4-(2-((1-(2-amino-3-hydroxypropyl)-1H-pyrazol-4-yl)amino)pyrimidin-4-yl)-2-methylbenzyl)-2-(tert-butyl)thiazole-5-carboxamide] | < 10 nM |
| CN1CCn2nc(Nc3cc(-c4ccc5c(c4)CCCC5NC(=O)c4cnc(C(C)(C)C)s4)ncn3)cc2C1 (stereo not drawn) [Example I-134, 2-(tert-butyl)-N-(6-(6-((5-methyl-4,5,6,7-tetrahydropyrazolo[1,5-a]pyrazin-2-yl)amino)pyrimidin-4-yl)-1,2,3,4-tetrahydronaphthalen-1-yl)thiazole-5-carboxamide] | < 10 nM |
| CC(C)(C)c1ncc(C(=O)NC2CCCc3cc(-c4ccnc(N)n4)ccc32)s1 (stereo not drawn) [Example I-136, N-(6-(2-aminopyrimidin-4-yl)-1,2,3,4-tetrahydronaphthalen-1-yl)-2-(tert-butyl)thiazole-5-carboxamide] | 10 to 99 nM |
| Nc1nccc(-c2ccc3c(c2)CCCC3NC(=O)c2cc3c(s2)CCCC3)n1 (stereo not drawn) [Example I-137, N-(6-(2-aminopyrimidin-4-yl)-1,2,3,4-tetrahydronaphthalen-1-yl)-4,5,6,7-tetrahydrobenzo[b]thiophene-2-carboxamide] | < 10 nM |
| Cc1cc(-c2ccnc(N)n2)ccc1CNC(=O)c1cc2c(s1)CCS(=O)(=O)C2 [Example I-138, N-(4-(2-aminopyrimidin-4-yl)-2-methylbenzyl)-6,7-dihydro-4H-thieno[3,2-c]thiopyran-2-carboxamide 5,5-dioxide] | 1000 to 10000 nM |
| Cc1cc(-c2ccnc(N)n2)ccc1CNC(=O)c1cc2c(s1)CCOC2 [Example I-139, N-(4-(2-aminopyrimidin-4-yl)-2-methylbenzyl)-6,7-dihydro-4H-thieno[3,2-c]pyran-2-carboxamide] | 10 to 99 nM |
| Cc1cc(-c2ccnc(N)n2)ccc1CNC(=O)c1cc2c(s1)CCNC2 [Example I-140, N-(4-(2-aminopyrimidin-4-yl)-2-methylbenzyl)-4,5,6,7-tetrahydrothieno[3,2-c]pyridine-2-carboxamide] | 10 to 99 nM |
| Cc1cc(-c2ccnc(N)n2)ccc1CNC(=O)c1cc2c(s1)CCN(C)C2 [Example I-141, N-(4-(2-aminopyrimidin-4-yl)-2-methylbenzyl)-5-methyl-4,5,6,7-tetrahydrothieno[3,2-c]pyridine-2-carboxamide] | 100 to 999 nM |
| CC(=O)Nc1cc(-c2ccc(CNC(=O)c3cc4c(s3)CCCC4)c(C)c2)ncn1 [Example I-143, N-(4-(6-acetamidopyrimidin-4-yl)-2-methylbenzyl)-4,5,6,7-tetrahydrobenzo[b]thiophene-2-carboxamide] | < 10 nM |
| CN(Cc1cc(-c2ccnc(N)n2)ccc1CNC(=O)c1cc2c(s1)CCCC2)C(=O)OC(C)(C)C [Example I-144, tert-butyl 5-(2-aminopyrimidin-4-yl)-2-((4,5,6,7-tetrahydrobenzo[b]thiophene-2-carboxamido)methyl)benzyl(methyl)carbamate] | 10 to 99 nM |
| CNCc1cc(-c2ccnc(N)n2)ccc1CNC(=O)c1cc2c(s1)CCCC2 [Example I-145, N-(4-(2-aminopyrimidin-4-yl)-2-((methylamino)methyl)benzyl)-4,5,6,7-tetrahydrobenzo[b]thiophene-2-carboxamide] | 100 to 999 nM |
| C=CC(=O)N(C)Cc1cc(-c2ccnc(N)n2)ccc1CNC(=O)c1cc2c(s1)CCCC2 [Example I-146, N-(4-(2-aminopyrimidin-4-yl)-2-((N-methylacrylamido)methyl)benzyl)-4,5,6,7-tetrahydrobenzo[b]thiophene-2-carboxamide] | 100 to 999 nM |
| Cc1cc(-c2cc(Nc3cc4n(n3)CCCN(C)C4)ncn2)ccc1CNC(=O)c1cnc(C(C)(C)C)s1 [Example I-147, 2-(tert-butyl)-N-(2-methyl-4-(6-((5-methyl-5,6,7,8-tetrahydro-4H-pyrazolo[1,5-a][1,4]diazepin-2-yl)amino)pyrimidin-4-yl)benzyl)thiazole-5-carboxamide] | < 10 nM |
| Cc1cc(-c2cc(Nc3cc4n(n3)CCCNC4)ncn2)ccc1CNC(=O)c1cnc(C(C)(C)C)s1 [Example I-148, 2-(tert-butyl)-N-(2-methyl-4-(6-((5,6,7,8-tetrahydro-4H-pyrazolo[1,5-a][1,4]diazepin-2-yl)amino)pyrimidin-4-yl)benzyl)thiazole-5-carboxamide] | < 10 nM |
| Cc1cc(-c2cc(Nc3cc4n(n3)CCCN(C(=O)OC(C)(C)C)C4)ncn2)ccc1CNC(=O)c1cnc(C(C)(C)C)s1 [Example I-149, tert-butyl 2-((6-(4-((2-(tert-butyl)thiazole-5-carboxamido)methyl)-3-methylphenyl)pyrimidin-4-yl)amino)-7,8-dihydro-4H-pyrazolo[1,5-a][1,4]diazepine-5(6H)-carboxylate] | < 10 nM |
| Cc1cc(-c2cc(Nc3cc4n(n3)CCN(C)C4)ncn2)ccc1CNC(=O)c1cnn(C(C)(C)C)c1 [Example I-150, 1-(tert-butyl)-N-(2-methyl-4-(6-((5-methyl-4,5,6,7-tetrahydropyrazolo[1,5-a]pyrazin-2-yl)amino)pyrimidin-4-yl)benzyl)-1H-pyrazole-4-carboxamide] | < 10 nM |
| Cc1cc(-c2cc(Nc3ccn(CCO)n3)ncn2)ccc1CNC(=O)c1cnc(C(C)(C)C)s1 [Example I-151, 2-(tert-butyl)-N-(4-(6-((1-(2-hydroxyethyl)-1H-pyrazol-3-yl)amino)pyrimidin-4-yl)-2-methylbenzyl)thiazole-5-carboxamide] | < 10 nM |
| Cc1cc(-c2ccnc(Nc3cnn(C)c3)n2)ccc1CNC(=O)N1CC(OC(C)(C)C)C1 [Example I-152, 3-(tert-butoxy)-N-(2-methyl-4-(2-((1-methyl-1H-pyrazol-4-yl)amino)pyrimidin-4-yl)benzyl)azetidine-1-carboxamide] | < 10 nM |
| Cc1cc(-c2ccnc(Nc3cnn(C)c3)n2)ccc1CNC(=O)c1cc(C(C)(C)C)on1 [Example I-153, 5-(tert-butyl)-N-(2-methyl-4-(2-((1-methyl-1H-pyrazol-4-yl)amino)pyrimidin-4-yl)benzyl)isoxazole-3-carboxamide] | < 10 nM |
| Cc1cc(-c2ccnc(Nc3cnn(C)c3)n2)ccc1CNC(=O)c1cnn(C(C)(C)C)c1 [Example I-154, 1-(tert-butyl)-N-(2-methyl-4-(2-((1-methyl-1H-pyrazol-4-yl)amino)pyrimidin-4-yl)benzyl)-1H-pyrazole-4-carboxamide] | < 10 nM |
| Cc1cc(-c2ccnc(Nc3cnn(C)c3)n2)ccc1CNC(=O)c1ccn(C)c1 [Example I-155, 1-Methyl-N-(2-methyl-4-(2-((1-methyl-1H-pyrazol-4-yl)amino)pyrimidin-4-yl)benzyl)-1H-pyrrole-3-carboxamide] | 10 to 99 nM |
| Cc1cc(-c2ccnc(Nc3cnn(C)c3)n2)ccc1CNC(=O)c1cn2c(n1)CCCC2 [Example I-156, N-(2-Methyl-4-(2-((1-methyl-1H-pyrazol-4-yl)amino)pyrimidin-4-yl)benzyl)-5,6,7,8-tetrahydroimidazo[1,2-a]pyridine-2-carboxamide] | 100 to 999 nM |
| Cc1cc(-c2ccnc(Nc3cnn(C)c3)n2)ccc1CNC(=O)c1cnn(C)c1 [Example I-157, 1-Methyl-N-(2-methyl-4-(2-((1-methyl-1H-pyrazol-4-yl)amino)pyrimidin-4-yl)benzyl)-1H-pyrazole-4-carboxamide] | 10 to 99 nM |
| Cc1cc(-c2ccnc(Nc3cnn(C)c3)n2)ccc1CNC(=O)c1cccn1C [Example I-158, 1-Methyl-N-(2-methyl-4-(2-((1-methyl-1H-pyrazol-4-yl)amino)pyrimidin-4-yl)benzyl)-1H-pyrrole-2-carboxamide] | 100 to 999 nM |
| Cc1cc(-c2ccnc(Nc3cnn(C)c3)n2)ccc1CNC(=O)c1cc2n(n1)CCCC2 [Example I-159, N-(2-Methyl-4-(2-((1-methyl-1H-pyrazol-4-yl)amino)pyrimidin-4-yl)benzyl)-4,5,6,7-tetrahydropyrazolo[1,5-a]pyridine-2-carboxamide] | < 10 nM |
